Laboratory results published in ChEMBL document CHEMBL5331051, “Cationic, amphipathic small molecules based on a triazine-piperazine-triazine scaffold as a new class of antimicrobial agents” (Eur J Med Chem, 2022).
Values after ≈ are worked out from the molar mass of the structure shown. Active and inactive are the calls of the source. No cut-off for these calls is given here.

Assays:
[1] = test system: Staphylococcus aureus; assay: Synergistic antibacterial activity against methicillin-resistant Staphylococcus aureus CCARM 3089 strain assessed as fractional inhibitory concentration in presence of ciprofloxacin by checkerboard assay; format: functional
[2] = test system: Cell membrane; assay: Induction of outer membrane permeabilization in Escherichia coli KCTC 1682 assessed as increase in fluorescence intensity at 2 to 8 ug/ml by NPN staining based analysis; conditions: dose 2-8 µg/ml
[3] = test system: Pseudomonas aeruginosa; assay: Synergistic antibacterial activity against multidrug-resistant Pseudomonas aeruginosa CCARM 2095 strain assessed as ciprofloxacin MIC by checkerboard assay; format: functional
[4] = test system: Lipopolysaccharide (LPS); assay: Displacement of BODIPY-TR-cadaverine from Escherichia coli O111:B4 lipopolysaccharide assessed as increase in fluorescence at 5 ug/ml by fluorescence based assay relative to control; conditions: dose 5.0 µg/ml
[5] = test system: Staphylococcus aureus; assay: Antibacterial activity against Staphylococcus aureus KCTC 1621 strain assessed as bacterial growth inhibition measured at 18 to 24 hrs in presence of 20% human serum by microdilution assay; format: functional; conditions: time 18-24 hrs
[6] = test system: Pseudomonas aeruginosa; assay: Synergistic antibacterial activity against multidrug-resistant Pseudomonas aeruginosa CCARM 2095 strain assessed as bacterial growth inhibition in presence of oxacillin by checkerboard assay; format: functional
[7] = test system: Pseudomonas aeruginosa; assay: Synergistic antibacterial activity against multidrug-resistant Pseudomonas aeruginosa CCARM 2095 strain assessed as fractional inhibitory concentration index in presence of chloramphenicol by checkerboard assay; format: functional
[8] = test system: Pseudomonas aeruginosa; assay: Synergistic antibacterial activity against multidrug-resistant Pseudomonas aeruginosa CCARM 2095 strain assessed as bacterial growth inhibition by checkerboard assay; format: functional
[9] = test system: Pseudomonas aeruginosa; assay: Synergistic antibacterial activity against multidrug-resistant Pseudomonas aeruginosa CCARM 2095 strain assessed as chloramphenicol fractional inhibitory concentration by checkerboard assay; format: functional
[10] = test system: Staphylococcus aureus; assay: Antibacterial activity against Staphylococcus aureus KCTC 1621 strain assessed as bacterial growth inhibition measured at 18 to 24 hrs in presence of 4.5 mM KCl by microdilution assay; format: functional; conditions: time 18-24 hrs
[11] = test system: Staphylococcus aureus; assay: Antibacterial activity against Staphylococcus aureus KCTC 1621 strain assessed as bacterial growth inhibition measured at 18 to 24 hrs in presence of 6 uM NH4Cl by microdilution assay; format: functional; conditions: time 18-24 hrs
[12] = test system: Pseudomonas aeruginosa; assay: Antibiofilm activity against multidrug-resistant Pseudomonas aeruginosa assessed as biofilm eradication; format: functional
[13] = test system: Staphylococcus aureus; assay: Antibacterial activity against Staphylococcus aureus KCTC 1621 strain assessed as bacterial growth inhibition measured at 18 to 24 hrs by microdilution assay; format: functional; conditions: time 18-24 hrs
[14] = test system: Staphylococcus aureus; assay: Additive antibacterial activity against multidrug-resistant Staphylococcus aureus CCARM 3089 strain assessed as oxacillin fractional inhibitory concentration by checkerboard assay; format: functional
[15] = test system: Pseudomonas aeruginosa; assay: Synergistic antibacterial activity against multidrug-resistant Pseudomonas aeruginosa CCARM 2095 strain assessed as ciprofloxacin fractional inhibitory concentration in presence of ciprofloxacin by checkerboard assay; format: functional
[16] = test system: Staphylococcus aureus; assay: Antibacterial activity against methicillin-resistant Staphylococcus aureus CCARM 3089 strain assessed as bacterial growth inhibition measured at 18 to 24 hrs by microdilution assay; format: functional; conditions: time 18-24 hrs
[17] = test system: Staphylococcus aureus; assay: Antibacterial activity against Staphylococcus aureus KCTC 1621 strain assessed as bacterial growth inhibition measured at 18 to 24 hrs in presence of 150 mM NaCl by microdilution assay; format: functional; conditions: time 18-24 hrs
[18] = test system: Escherichia coli; assay: Antibacterial activity against Escherichia coli KCTC 1682 strain assessed as bacterial growth inhibition measured at 18 to 24 hrs in presence of 20% human serum by microdilution assay; format: functional; conditions: time 18-24 hrs
[19] = test system: Staphylococcus aureus; assay: Additive antibacterial activity against multidrug-resistant Staphylococcus aureus CCARM 3089 strain assessed as fractional inhibitory concentration index in presence of oxacillin by checkerboard assay; format: functional
[20] = test system: Lipopolysaccharide (LPS); assay: Binding affinity to Escherichia coli O111:B4 lipopolysaccharide assessed as suppression of FTIC labeled LPS binding to mouse RAW264.7 cells at 20 ug/ml pretreated LPS with cells for 1 hr followed by compound addition measured after 1 hr by flow cytometer assay (reference value: 48.12%); format: cell-based; conditions: dose 20.0 µg/ml
[21] = test system: Staphylococcus aureus; assay: Antibacterial activity against Staphylococcus aureus KCTC 1621 strain assessed as bacterial growth inhibition measured at 18 to 24 hrs in presence of 4 uM FeCl3 by microdilution assay; format: functional; conditions: time 18-24 hrs
[22] = test system: Staphylococcus aureus; assay: Synergistic antibacterial activity against multidrug-resistant Staphylococcus aureus CCARM 3089 strain assessed as oxacillin fractional inhibitory concentration by checkerboard assay; format: functional
[23] = test system: Pseudomonas aeruginosa; assay: Synergistic antibacterial activity against multidrug-resistant Pseudomonas aeruginosa CCARM 2095 strain assessed as oxacillin fractional inhibitory concentration in presence of oxacillin by checkerboard assay; format: functional
[24] = test system: Escherichia coli; assay: Antibacterial activity against Escherichia coli KCTC 1682 strain assessed as bacterial growth inhibition measured at 18 to 24 hrs in presence of 1 mM MgCl2 by microdilution assay; format: functional; conditions: time 18-24 hrs
[25] = test system: Staphylococcus aureus; assay: Synergistic antibacterial activity against multidrug-resistant Staphylococcus aureus CCARM 3089 strain assessed as fractional inhibitory concentration index in presence of ciprofloxacin by checkerboard assay; format: functional
[26] = test system: Staphylococcus epidermidis; assay: Antibacterial activity against Staphylococcus epidermidis KCTC 1917 strain assessed as bacterial growth inhibition measured at 18 to 24 hrs by microdilution assay; format: functional; conditions: time 18-24 hrs
[27] = test system: RAW264.7; assay: Antiinflammatory activity in LPS-induced mouse RAW264.7 cells assessed as reduction in TNF alpha mRNA expression level at 20 ug/ml measured after 18 hrs by RT-PCR assay relative to control; format: functional, cell-based; conditions: dose 20.0 µg/ml
[28] = test system: Pseudomonas aeruginosa; assay: Synergistic antibacterial activity against multidrug-resistant Pseudomonas aeruginosa CCARM 2095 strain assessed as fractional inhibitory concentration index in presence of oxacillin by checkerboard assay; format: functional
[29] = test system: Staphylococcus aureus; assay: Synergistic antibacterial activity against multidrug-resistant Staphylococcus aureus CCARM 3089 strain assessed as ciprofloxacin fractional inhibitory concentration by checkerboard assay; format: functional
[30] = test system: Enterococcus faecium; assay: Antibacterial activity against vancomycin-resistant Enterococcus faecium ATCC 51559 strain assessed as bacterial growth inhibition measured at 18 to 24 hrs by microdilution assay; format: functional; conditions: time 18-24 hrs
[31] = test system: Staphylococcus aureus; assay: Antibacterial activity against methicillin-resistant Staphylococcus aureus CCARM 3090 strain assessed as bacterial growth inhibition measured at 18 to 24 hrs by microdilution assay; format: functional; conditions: time 18-24 hrs
[32] = test system: Staphylococcus aureus; assay: Synergistic antibacterial activity against methicillin-resistant Staphylococcus aureus CCARM 3089 strain assessed as bacterial growth inhibition in presence of ciprofloxacin by checkerboard assay; format: functional
[33] = test system: Pseudomonas aeruginosa; assay: Synergistic antibacterial activity against multidrug-resistant Pseudomonas aeruginosa CCARM 2095 strain assessed as bacterial growth inhibition in presence of chloramphenicol by checkerboard assay; format: functional
[34] = test system: Escherichia coli; assay: Antibacterial activity against Escherichia coli KCTC 1682 strain assessed as bacterial growth inhibition measured at 18 to 24 hrs in presence of 4.5 mM KCl by microdilution assay; format: functional; conditions: time 18-24 hrs
[35] = test system: Staphylococcus aureus; assay: Antibacterial activity against methicillin-resistant Staphylococcus aureus CCARM 3089 strain assessed as bacterial growth inhibition by checkerboard assay; format: functional
[36] = test system: Staphylococcus aureus; assay: Additive antibacterial activity against multidrug-resistant Staphylococcus aureus CCARM 3089 strain assessed as ciprofloxacin fractional inhibitory concentration by checkerboard assay; format: functional
[37] = test system: Pseudomonas aeruginosa; assay: Synergistic antibacterial activity against multidrug-resistant Pseudomonas aeruginosa CCARM 2095 strain assessed as chloramphenicol MIC by checkerboard assay; format: functional
[38] = test system: Staphylococcus aureus; assay: Additive antibacterial activity against methicillin-resistant Staphylococcus aureus CCARM 3089 strain assessed as chloramphenicol MIC by checkerboard assay; format: functional

Row | Structure (SMILES) | FIC [1] | Activity [2] | MIC [3] | Activity [4] | MIC [5] | MIC [10] | MIC [11] | MIC [13] | MIC [16] | MIC [17] | MIC [18] | Flu intensity [20] | MIC [21] | MIC [24] | MIC [26] | Activity [27] | MIC [30] | MIC [31] | MIC [34] | MIC [35] | other results
1 | NCCN(CCN)c1nc(NCc2ccccc2)nc(N2CC(Cc3ccccc3)N(c3nc(NCc4ccccc4)nc(N(CCN)CCN)n3)CC2Cc2ccccc2)n1 (centres undefined) | 0.25 | inactive | 256 µg/mL | 75% | 10.8 µM | 5.4 µM | 5.4 µM | 5.4 µM (≈ 4.52 µg/mL) | 5.4 µM (≈ 4.52 µg/mL) | 5.4 µM | 5.4 µM | 16.4% | 5.4 µM | 10.8 µM | 2.7 µM (≈ 2.26 µg/mL) | Active | 21.4 µM (≈ 17.9 µg/mL) | 5.4 µM (≈ 4.52 µg/mL) | 5.4 µM | 4 µg/mL | MIC [6]: 4 µg/mL; fractional inhibitory concentration index (FICI) [7]: 0.5; MIC [8]: 16 µg/mL; FIC [9]: 0.25; MBEC50 [12]: 10.4 µM; MBEC90 [12]: 10.4 µM; FIC [14]: 0.25; FIC [15]: 0.125; fractional inhibitory concentration index (FICI) [19]: 0.5; FIC [22]: 0.25; FIC [23]: 0.25; fractional inhibitory concentration index (FICI) [25]: 0.375; fractional inhibitory concentration index (FICI) [28]: 0.375; FIC [29]: 0.125; MIC [32]: 1 µg/mL; MIC [33]: 4 µg/mL; FIC [36]: 0.125; MIC [37]: 256 µg/mL
2 | NCCCCNc1nc(NCCCCN)nc(N2CC(Cc3ccccc3)N(c3nc(NCCCCN)nc(NCCCCN)n3)CC2Cc2ccccc2)n1 (centres undefined) | 0.25 | inactive | 128 µg/mL | > 50% | 10.4 µM | 5.2 µM | 5.2 µM | 5.2 µM (≈ 4 µg/mL) | 5.2 µM (≈ 4 µg/mL) | 5.2 µM | 10.4 µM | 21.2% | 20.8 µM | 10.4 µM | 5.2 µM (≈ 4 µg/mL) | Active | 41.6 µM (≈ 32 µg/mL) | 5.2 µM (≈ 4 µg/mL) | 10.4 µM | 4 µg/mL | MIC [6]: 8 µg/mL; fractional inhibitory concentration index (FICI) [7]: 0.375; MIC [8]: 32 µg/mL; FIC [9]: 0.125; FIC [14]: 0.25; FIC [15]: 0.25; fractional inhibitory concentration index (FICI) [19]: 0.5; FIC [22]: 0.25; FIC [23]: 0.25; fractional inhibitory concentration index (FICI) [25]: 0.375; fractional inhibitory concentration index (FICI) [28]: 0.5; FIC [29]: 0.125; MIC [32]: 1 µg/mL; MIC [33]: 8 µg/mL; FIC [36]: 0.125; MIC [37]: 128 µg/mL; MIC [38]: 64 µg/mL
3 | N=C(N)NCCNc1nc(NCCNC(=N)N)nc(N2CC(Cc3ccccc3)N(c3nc(NCCNC(=N)N)nc(NCCNC(=N)N)n3)CC2Cc2ccccc2)n1 (centres undefined) |  | inactive |  | > 50% | 9.6 µM | 4.8 µM | 4.8 µM | 4.8 µM (≈ 3.96 µg/mL) | 9.7 µM (≈ 8 µg/mL) | 4.8 µM | 9.7 µM | 40.6% | 9.6 µM | 9.7 µM | 4.8 µM (≈ 3.96 µg/mL) | Active | 38.7 µM (≈ 31.9 µg/mL) | 4.8 µM (≈ 3.96 µg/mL) | 9.7 µM | 8 µg/mL | MIC [38]: 128 µg/mL
